The source of these data is ChEMBL document CHEMBL5576102, “Characterization of Sesquiterpene Dimers from the Flowers of Inula japonica and the Structural Revisions of Related Compounds” (J Nat Prod, 2024).

The structures appear in SMILES notation. Where only a bound is given, the exact number is not on record here.

In general, IC50 refers to the point on the concentration scale where inhibition reaches its midpoint.

For data set [1], the system named is RAW264.7. Put plainly: Anti-inflammatory activity in LPS-stimulated mouse RAW264.7 cells assessed as inhibition of NO production measured after 48 hrs by Griess assay. The class given is functional, cell-based. The following applies: RAW264.7, 48 h. (In general: The Griess reaction detects nitrite, a stable product of nitric oxide.)
In data set [2] the test system is RAW264.7. Put plainly: Cytotoxicity against mouse RAW264.7 cells upto 50 uM measured after 48 hrs by MTT assay. The class given is toxicity, cell-based. As to conditions: raw264.7, 48 h. For orientation: Tetrazolium dyes change colour on reduction, which living cells bring about.
Data set [3] concerns RAW264.7. Kind of data set: Cytotoxicity against mouse RAW264.7 cells at 6.25 to 3.125 uM measured after 48 hrs by MTT assay. The class given is toxicity, cell-based. As to conditions: raw264.7, 48 h, dose 6.25-3.125 µM.
Data set [4] relates to RAW264.7. Kind of data set: Cytotoxicity against mouse RAW264.7 cells upto 25 uM measured after 48 hrs by MTT assay. The following applies: raw264.7, 48 h. The class given is toxicity, cell-based.

As for `CC(=O)O[C@H]1[C@@H]2C(C)=C3C[C@H]4[C@H](C[C@H](C)[C@@]31C[C@@]21C(=O)O[C@@H]2C[C@@](C)(O)C([C@@H](C)CCCO)=C[C@@H]21)OC(=O)[C@H]4C`, in data set [1], the 50% inhibitory concentration (IC50) is > 50 µM. In addition, the Activity result in data set [2] is “Non-Toxic”.

In the case of `C=C1C[C@H]2OC(=O)[C@@]3(C[C@]45C(=C(C)[C@H]3[C@@H]4OC(C)=O)C[C@@H]3C(=C)C(=O)O[C@H]3C[C@@H]5C)[C@H]2C=C1[C@@H](C)CCCOC(C)=O`, the half-maximal inhibitory concentration (IC50) in data set [1] is > 50 µM. The Activity result in data set [3] is listed as “Non-Toxic”.

As for `C=C1C(=O)O[C@H]2C[C@H](C)[C@@]34C[C@@]5(C(=O)O[C@@H]6C[C@@](C)(O)C([C@@H](C)CCCO)=C[C@@H]65)[C@@H](C(C)=C3C[C@H]12)[C@@H]4OC(C)=O`, the IC50 in data set [1] was 10 µM. Besides, the Activity result in data set [2] is recorded as “Non-Toxic”.

Turning to `CC(=O)OCCC[C@H](C)c1cc([C@@]2(C(=O)O)CC[C@H](C(=O)O)c3cc([C@@H](C)CCCOC(C)=O)c(C)cc32)ccc1C`, the IC50 in data set [1] was > 50 µM. Further, the Activity entry in data set [2] was “Non-Toxic”.

As for `C=C1C(=O)O[C@H]2C[C@H](C)[C@@]34C[C@](C(=O)O)(c5ccc(C)c([C@@H](C)CCCO)c5)[C@@H](C(C)=C3C[C@H]12)[C@@H]4OC(C)=O`, the IC50 in data set [1] was determined as 7.82 µM. Moreover, in data set [2], the Activity result was “Non-Toxic”.

Regarding `CC(=O)OCCC[C@H](C)c1cc([C@@]2(C(=O)O)CC[C@H](C(=O)O)c3cc([C@@H](C)CCCO)c(C)cc32)ccc1C`, the IC50 in data set [1] was > 50 µM. Also, the Activity result in data set [2] is listed as “Non-Toxic”.

Turning to `C[C@]12CCC(=O)C=C1CC[C@@H]1[C@@H]2[C@@H](O)C[C@@]2(C)[C@H]1CC[C@]2(O)C(=O)COC(=O)CCC(=O)O` [HYDROCORTISONE SODIUM SUCCINATE], the IC50 in data set [1] is 44 µM.

With `Cc1ccc([C@@]2(C(=O)O)CC[C@H](C(=O)O)c3cc([C@@H](C)CCCO)c(C)cc32)cc1[C@@H](C)CCCO`, in data set [1], the half-inhibitory concentration (IC50) was > 50 µM. For the same compound, the Activity entry in data set [2] is “Non-Toxic”.

Take `CC(=O)OCCC[C@H](C)C1=C(C)C[C@H]2OC(=O)[C@@]3(C[C@]45C(=C(C)[C@H]3[C@@H]4OC(C)=O)C[C@H]3[C@H](C[C@@H]5C)OC(=O)[C@H]3C)[C@H]2[C@@H]1O`: the IC50 in data set [1] stood at 5.73 µM. Further, the Activity result in data set [4] is on record as “Non-Toxic”.

For the compound `C=C1C(=O)O[C@H]2C[C@H](C)[C@@]34C[C@@]5(C(=O)O[C@@H]6C[C@](C)(O)C([C@@H](C)CCCOC(C)=O)=C[C@@H]65)[C@@H](C(C)=C3C[C@H]12)[C@@H]4OC(C)=O`, the IC50 in data set [1] came to 4.07 µM. The Activity entry in data set [4] is recorded as “Non-Toxic”.

Turning to `CC(=O)O[C@H]1[C@@H]2C(C)=C3C[C@H]4[C@H](C[C@H](C)[C@@]31C[C@]2(C(=O)O)c1ccc(C)c([C@@H](C)CCCO)c1)OC(=O)[C@H]4C`, the IC50 in data set [1] was > 50 µM. Moreover, the Activity entry in data set [2] is “Non-Toxic”.
